# Measured values: patent publication US9995734B2, “Human T cell line assay for evaluating the immunologic identity of glatiramer acetate preparations” (Mylan Inc., priority 2013, dated 2018)
# Values joined by “and” are separate entries in the source; they are usually repeats but may differ in a detail not shown here. Identical values can stand only once.
# What was measured:
# Type in all cases: cell-based, human
# [1] = test system: Donor 1 GMA Expanded T-Cell Lines (222-AG11, 222-AG12, 222-BA11, 222-BC11); experiment: ATP proliferation assay (CellTiter Glo), Donor 1 GMA expanded T-cell lines, incl. reactivity to non-canonical GA peptides; conditions: for Proliferation (luminescent ATP assay), Mean: T-cell line 222-AG12, autologous B-LCL
# Procedure: Proliferation was evaluated by measuring ATP content using a luminescent method (CellTiter Glo Luminescent Cell Viability Assay, Promega, Madison, Wis., cat. #G7571) or by measuring BrdU uptake by ELISA (Millipore cat. #2752), in both cases following kit instructions. A split well format was used. Cells in each well were resuspended and 65 μl transferred to the wells of each of two new U-bottom 96-well plates, to generate the replicate plates. For the initial screening, the original 96-well plate received mitomycin-treated autologous PBMC as APC plus 10 μg/mL antigen (GA). A first replicate plate received 100 μl., mitomycin-treated PBMC alone (2×10^5), and no antigen, and a second replicate plate received 100 μL mitomycin-treated PBMC plus GA at a final concentration of 10 μg/mL. Therefore, all three plates received autologous APC (PBMC) treated with mitomycin C to prevent cell division. […] The latter two plates were incubated for 3 days at 37° C., 6% CO2 before adding CellTiter Glo or BrdU and measuring signal. IL-2 was added at 10 U/mL to the original 96-well plate for expansion on Day 17. For subsequent screenings, mitomycin-treated EBV-transformed autologous B-LCL (2×10^5 to 5×10^5 cells/mL) were used as APC.
# On Day 24, cells from the wells corresponding to the eight presumptive GA-specific human T-cell lines listed in Table 4 were transferred to a 24-well plate and expanded by stimulating with 10 μg/mL GMA and mitomycin-treated autologous PBMC as APC (3×10^6 per well, i.e., 1.5×10^6/mL). On Day 32 four of the eight lines, 222-BA11, 222-BC11, 222-AG11, and 222-AG12, were stimulated with 0, 1, 10 and 100 μg/mL GMA and tested in a 96-well plate for a proliferative response to GMA using an ATP assay, again using autologous PBMC as APC (2×10^5 per well, i.e., 1×10^6/mL). […] FIGS. 2A and B show the results of the ATP proliferation assay carried out using 222-AG12, 222-BC11, 222-AG11, and 222-BA11 at Day 35 (control=no antigen). FIGS. 3A-C compare the results of ATP proliferation assays carried out after stimulation with varying concentrations of GMA or Copaxone as indicated, using cell lines 222-BA11, 222-BC11, and 222-AG12.
# Donor 1 GMA T-cell line 222-AG12 was assayed for proliferation following stimulation with 0, 1, 10, and 30 μg/mL each of peptides GLT 631, GAT 631, GAT 111, LT 11, GT 11, GL 14, COP, and GMA, at a T-cell concentration of 2×10^5 cells/mL, in the presence of mitomycin C-treated autologous B-LCL. Line 222-AG12 was assayed after 3 rounds of restimulation (4 total stimulations). Proliferation was measured by luminescent ATP assay.
# Donor 3 COP T-Cell Lines = experiment: ATP proliferation assay (CellTiter Glo), Donor 3 COP T-cell lines, incl. reactivity to non-canonical GA peptides; conditions: for Non-Canonical Peptide Non-Reactivity: proliferation <2 times no antigen control; for Reactivity (proliferation), Mean: Day 54 of culture; for Mean, ATP proliferation assay: 10 μg/mL
# Donor 4 COP T-Cell Lines = experiment: ATP proliferation assay (CellTiter Glo), Donor 4 COP T-cell lines, incl. reactivity to non-canonical GA peptides; conditions: for Non-Canonical Peptide Non-Reactivity: proliferation <2 times no antigen control; for Proliferation (luminescent ATP assay), Mean: T-cell line 205-1F4, Day 71, autologous B-LCL
# [2] = T-cell line 165-C7C, 10 μg/mL antigen, autologous B-LCL
substance,measurement,setting,value
poly (Glu-Ala-Tyr; 1:1:1) [GAT 111],Non-Canonical Peptide Non-Reactivity,"[1]; 222-AG12, proliferation <2 times no antigen control",GAT 111
same,Nonreactive T-Cell Line,"[1]; Donor 1 GMA expanded lines, stimulation with the non-canonical GA peptide",222-AG12 (Donor 1)
same,"Proliferation (luminescent ATP assay), Mean",[1]; 1 ug/mL antigen,3391 RLU
same,"Proliferation (luminescent ATP assay), Mean",[1]; 10 ug/mL antigen,2568 RLU
same,"Proliferation (luminescent ATP assay), Mean",[1]; 30 ug/mL antigen,2245 RLU
same,Non-Canonical Peptide Non-Reactivity,Donor 3 COP T-Cell Lines; 165-C4C,GAT 111
same,Non-Canonical Peptide Non-Reactivity,Donor 3 COP T-Cell Lines; 165-C7C,GAT 111
same,proliferation response to non-canonical peptides,"Donor 3 COP T-Cell Lines; 165-E3C, separate experiment",did not react
same,Non-Canonical Peptide Non-Reactivity,Donor 3 COP T-Cell Lines; 165-F3C,GAT 111
same,Non-Canonical Peptide Non-Reactivity,Donor 3 COP T-Cell Lines; 165-F6C,GAT 111
same,Non-Canonical Peptide Non-Reactivity,Donor 3 COP T-Cell Lines; 165-U3C (so in the source),GAT 111
same,Nonreactive T-Cell Line,"Donor 3 COP T-Cell Lines; Donor 3 COP lines, stimulation with the non-canonical GA peptide",165-C4C (Donor 3) and 165-C7C (Donor 3) and 165-E3C (Donor 3) and 165-F3C (Donor 3) and 165-F6C (Donor 3)
same,"Proliferation (luminescent ATP assay), Mean","Donor 3 COP T-Cell Lines; T-cell line 165-C4C, 1 μg/mL antigen, Day 66 of culture, 0 μg/mL 1881",2330
same,"Proliferation (luminescent ATP assay), Mean","Donor 3 COP T-Cell Lines; T-cell line 165-C4C, 3 μg/mL antigen, Day 66 of culture, 0 μg/mL 1881",2392
same,"Proliferation (luminescent ATP assay), Mean","Donor 3 COP T-Cell Lines; T-cell line 165-C4C, 10 μg/mL antigen, Day 66 of culture, 0 μg/mL 1881",2233
same,"Proliferation (luminescent ATP assay), Mean","Donor 3 COP T-Cell Lines; T-cell line 165-C7C, 1.25 μg/mL antigen, autologous B-LCL",273 RLU
same,"Proliferation (luminescent ATP assay), Mean","Donor 3 COP T-Cell Lines; T-cell line 165-C7C, 2.5 μg/mL antigen, autologous B-LCL",231 RLU
same,"Proliferation (luminescent ATP assay), Mean","Donor 3 COP T-Cell Lines; T-cell line 165-C7C, 5 μg/mL antigen, autologous B-LCL",224 RLU
same,"Proliferation (luminescent ATP assay), Mean",Donor 3 COP T-Cell Lines; [2],264 RLU
same,"Proliferation (luminescent ATP assay), Mean","Donor 3 COP T-Cell Lines; T-cell line 165-F3C, 1 μg/mL antigen, Day 77 of culture, 0 μg/mL 1563",2387
same,"Proliferation (luminescent ATP assay), Mean","Donor 3 COP T-Cell Lines; T-cell line 165-F3C, 3 μg/mL antigen, Day 77 of culture, 0 μg/mL 1563",2269
same,"Proliferation (luminescent ATP assay), Mean","Donor 3 COP T-Cell Lines; T-cell line 165-F3C, 10 μg/mL antigen, Day 77 of culture, 0 μg/mL 1563",1772
same,"Proliferation (luminescent ATP assay), Mean","Donor 3 COP T-Cell Lines; T-cell line 165-F6C, 1.25 μg/mL antigen, Day 76 of culture, No Antigen value 517",576
same,"Proliferation (luminescent ATP assay), Mean","Donor 3 COP T-Cell Lines; T-cell line 165-F6C, 2.5 μg/mL antigen, Day 76 of culture, No Antigen value 517",620
same,"Proliferation (luminescent ATP assay), Mean","Donor 3 COP T-Cell Lines; T-cell line 165-F6C, 5 μg/mL antigen, Day 76 of culture, No Antigen value 517",479
same,"Proliferation (luminescent ATP assay), Mean","Donor 3 COP T-Cell Lines; T-cell line 165-F6C, 10 μg/mL antigen, Day 76 of culture, No Antigen value 517",411
same,Non-Canonical Peptide Non-Reactivity,Donor 4 COP T-Cell Lines; 205-1F4,GAT 111
same,Non-Canonical Peptide Non-Reactivity,Donor 4 COP T-Cell Lines; 205-1H3,GAT 111
same,reactivity to non-canonical GA peptides,"Donor 4 COP T-Cell Lines; 205-1H7, after seven stimulations, 0, 1, 10, 30 μg/mL",not
same,Non-Canonical Peptide Non-Reactivity,Donor 4 COP T-Cell Lines; 205-1H7,GAT 111
same,Non-Canonical Peptide Non-Reactivity,Donor 4 COP T-Cell Lines; 205-1H11,GAT 111
same,Nonreactive T-Cell Line,"Donor 4 COP T-Cell Lines; Donor 4 COP lines, stimulation with the non-canonical GA peptide",205-1F4 (Donor 4) and 205-1H3 (Donor 4) and 205-1H7 (Donor 4) and 205-1H11 (Donor 4)
same,"Proliferation (luminescent ATP assay), Mean",Donor 4 COP T-Cell Lines; 1 μg/mL antigen,2002
same,"Proliferation (luminescent ATP assay), Mean",Donor 4 COP T-Cell Lines; 3 μg/mL antigen,2163
same,"Proliferation (luminescent ATP assay), Mean",Donor 4 COP T-Cell Lines; 10 μg/mL antigen,2275
FFKNIVTPRTPPPSQGK [MBP],"Reactivity (proliferation), Mean","Donor 3 COP T-Cell Lines; T-cell line 165-B6C, 3 μg/mL antigen, No Antigen 2358",2205 RLU
same,"Reactivity (proliferation), Mean","Donor 3 COP T-Cell Lines; T-cell line 165-B6C, 10 μg/mL antigen, No Antigen 2358",2268 RLU
same,"Mean, ATP proliferation assay","Donor 3 COP T-Cell Lines; T-cell line 165-B6C, Day 46, after 3 days",3216 RLU
same,"Reactivity (proliferation), Mean","Donor 3 COP T-Cell Lines; T-cell line 165-B6C, 100 μg/mL antigen, No Antigen 2358",2201 RLU
same,"Reactivity (proliferation), Mean","Donor 3 COP T-Cell Lines; T-cell line 165-B10C, 3 μg/mL antigen, No Antigen 2234",2176 RLU
same,"Reactivity (proliferation), Mean","Donor 3 COP T-Cell Lines; T-cell line 165-B10C, 10 μg/mL antigen, No Antigen 2234",2320 RLU
same,"Mean, ATP proliferation assay","Donor 3 COP T-Cell Lines; T-cell line 165-B10C, Day 46, after 3 days",3003 RLU
same,"Reactivity (proliferation), Mean","Donor 3 COP T-Cell Lines; T-cell line 165-B10C, 100 μg/mL antigen, No Antigen 2234",2272 RLU
same,"Mean, ATP proliferation assay","Donor 3 COP T-Cell Lines; T-cell line 165-C4C, Day 39",1631
same,"Proliferation (luminescent ATP assay), Mean",Donor 3 COP T-Cell Lines; [2],278 RLU
same,"Mean, ATP proliferation assay","Donor 3 COP T-Cell Lines; T-cell line 165-C7C, Day 39",1673
same,"Mean, ATP proliferation assay","Donor 3 COP T-Cell Lines; T-cell line 165-D2C, Day 39",1927
same,"Reactivity (proliferation), Mean","Donor 3 COP T-Cell Lines; T-cell line 165-D3C, 3 μg/mL antigen, No Antigen 8319",8037 RLU
same,"Reactivity (proliferation), Mean","Donor 3 COP T-Cell Lines; T-cell line 165-D3C, 10 μg/mL antigen, No Antigen 8319",8656 RLU
same,"Mean, ATP proliferation assay","Donor 3 COP T-Cell Lines; T-cell line 165-D3C, Day 46, after 3 days",15482 RLU
same,"Reactivity (proliferation), Mean","Donor 3 COP T-Cell Lines; T-cell line 165-D3C, 100 μg/mL antigen, No Antigen 8319",8647 RLU
same,"Reactivity (proliferation), Mean","Donor 3 COP T-Cell Lines; T-cell line 165-D11C, 3 μg/mL antigen, No Antigen 4571",4348 RLU
same,"Reactivity (proliferation), Mean","Donor 3 COP T-Cell Lines; T-cell line 165-D11C, 10 μg/mL antigen, No Antigen 4571",4301 RLU
same,"Mean, ATP proliferation assay","Donor 3 COP T-Cell Lines; T-cell line 165-D11C, Day 46, after 3 days",8406 RLU
same,"Reactivity (proliferation), Mean","Donor 3 COP T-Cell Lines; T-cell line 165-D11C, 100 μg/mL antigen, No Antigen 4571",4020 RLU
same,"Reactivity (proliferation), Mean","Donor 3 COP T-Cell Lines; T-cell line 165-E3C, 3 μg/mL antigen, No Antigen 2797",2898 RLU
same,"Reactivity (proliferation), Mean","Donor 3 COP T-Cell Lines; T-cell line 165-E3C, 10 μg/mL antigen, No Antigen 2797",2658 RLU
same,"Mean, ATP proliferation assay","Donor 3 COP T-Cell Lines; T-cell line 165-E3C, Day 46, after 3 days",7662 RLU
same,"Reactivity (proliferation), Mean","Donor 3 COP T-Cell Lines; T-cell line 165-E3C, 100 μg/mL antigen, No Antigen 2797",2582 RLU
same,"Reactivity (proliferation), Mean","Donor 3 COP T-Cell Lines; T-cell line 165-F3C, 3 μg/mL antigen, No Antigen 3150",3369 RLU
same,"Reactivity (proliferation), Mean","Donor 3 COP T-Cell Lines; T-cell line 165-F3C, 10 μg/mL antigen, No Antigen 3150",3115 RLU
same,"Mean, ATP proliferation assay","Donor 3 COP T-Cell Lines; T-cell line 165-F3C, Day 46, after 3 days",9849 RLU
same,"Reactivity (proliferation), Mean","Donor 3 COP T-Cell Lines; T-cell line 165-F3C, 100 μg/mL antigen, No Antigen 3150",3017 RLU
same,"Reactivity (proliferation), Mean","Donor 3 COP T-Cell Lines; T-cell line 165-F6C, 3 μg/mL antigen, No Antigen 2189",1960 RLU
same,"Reactivity (proliferation), Mean","Donor 3 COP T-Cell Lines; T-cell line 165-F6C, 10 μg/mL antigen, No Antigen 2189",1977 RLU
same,"Mean, ATP proliferation assay","Donor 3 COP T-Cell Lines; T-cell line 165-F6C, Day 46, after 3 days",2214 RLU
same,"Reactivity (proliferation), Mean","Donor 3 COP T-Cell Lines; T-cell line 165-F6C, 100 μg/mL antigen, No Antigen 2189",3672 RLU
